From patent publication US20190350898A1, “METHODS AND COMPOSITIONS FOR TREATMENT OF ALZHEIMER'S DISEASE” (Neurotrope Bioscience, Inc., priority 2018, published 2019)
Several values for one entry are separate records, joined by “and”; a condition that tells them apart may be missing. Identical values can stand only once.

Columns and labels:
[1] = system: patients with advanced Alzheimer's disease; test: Severe Impairment Battery (SIB) change from baseline, double-blind randomized placebo-controlled trial; type: in vivo, human; conditions: for SIB Total change from baseline, LS Mean / SIB Total, Difference vs. Placebo / SIB Total change from baseline, LS Mean (SE): Bryostatin 20 μg; for SIB Delta at Ave of Week 13 and 15, Mean / SIB Delta at Week 5, Mean / SIB Delta at Week 9, Mean / SIB Delta at Week 13, Mean: Low dose (20), unadjusted; for Combined treatment effect, mean improvement in SIB over placebo: bryostatin 20 μg, post-hoc MMRM; for SIB Total LS Mean difference between 20 μg group and placebo: week 13
Method: In a double-blind, randomized, placebo-controlled trial, bryostatin was administered by intravenous infusion (˜45 minutes) to patients with advanced Alzheimer's disease for 12 weeks at doses of 20 or 40 μg. Randomization was stratified at baseline by severe (MMSE-2, 4-9) and moderate (MMSE-2, 10-15) dementia, wherein MMSE-2 refers to Mini-Mental State Examination, version 2. The MMSE or Folstein test is a 30-point questionnaire that is used extensively in clinical and research settings to measure cognitive impairment. Low scores indicate greater impairment. Version 2 of the MMSE was published in 2010, expanding the original questionnaire's usefulness in populations with milder forms of cognitive impairment. […] Importantly, this cognitive improvement persisted and increased 30 days after all bryostatin dosing had been completed.
(§1) Adults aged 55-85 with cognitive deficits present for at least 2 years, MMSE-2 of 4-15, inclusive, and a diagnosis of Alzheimer's dementia were randomly assigned to receive blinded intravenous infusions of bryostatin 24 μg or matching placebo at weeks 0 and 1. The 24 μg and 48 μg doses during the first two weeks of the 20 and 40 μg protocols respectively were considered to be “loading” doses thought to be beneficial from prior experience with Compassionate Use trial patients. Nelson et al., Alzheimers Dis. 2017 58: 521-535. In one arm, the two 24 μg doses were followed by 20 μg doses at weeks 5, 7, 9 and 11 with the Severe Impairment Battery (SIB) measured at baseline and weeks 5, 9, 13, and 15. In a second arm, the two 48 μg doses at weeks 0 and 1 were followed by 40 μg doses at weeks 5, 7, 9, and 11 with the SIB measured at baseline and weeks 5, 9, 13, and 15. The subjects were stratified by MMSE-2 in two strata: Stratum 1 (4-9) and Stratum 2 (10-15). The first primary endpoint was safety and tolerability, assessed by treatment emergent adverse events (TEAEs) with a sample size of 150 subjects randomized 1:1:1. Although efficacy was the secondary measure, the primary efficacy endpoint was SIB improvement at week 13 evaluated using a mixed model for repeated measures. A secondary efficacy endpoint was ADCS-ADL Sev. The primary safety population included all subjects who received at least 1 dose of study drug, and efficacy was evaluated in a modified intent to treat (mITT) population that received at least 1 dose of study drug and had at least one treatment evaluation. Efficacy was evaluated both as a primary end-point in the modified intent-to-treat (mITT) population and also as a primary end point in a Completers population that included all patients that completed the entire protocols as described above.
The SIB efficacy measurement at 30 days (week 15) post dosing—after all dosing had been completed (last dose administered at week 11)—was a pre-specified exploratory endpoint. Week 15 results were only included for subjects who were not re-randomized. The mixed model assumes missing at random, but order of enrollment in the trial was not random. Since order of enrollment was not random, the assumption of missing at random is not met. For this reason, only including week 15 for those who were not re-randomized is an appropriate way to estimate week 15 results, but not an appropriate way to estimate results at the earlier visits. For this reason, estimates up through week 13 are from a mixed model that only included data through week 13 and the week 15 estimates are from a separate model. Results were generated using a mixed model with repeated measures predicting change from baseline in SIB Total Score as the response variable and using baseline score, baseline MMSE strata, treatment, visit (categorical), and visit (treatment) as predictors. […]

[2] = system: patients with advanced Alzheimer's disease; test: ADCS-ADL-SIV (ADCS-ADL Sev) secondary efficacy endpoint, same trial; type: in vivo, human; conditions: for ADCS-ADL LS Mean difference between 20 μg group and placebo: week 13
Method: as §1
There was no evidence of treatment by efficacy of acetyl-cholinesterase-inhibitor (AChEI) use interaction. For SIB Total, the two sided p-value for the interaction between treatment and AChEI use was 0.8244 and the two sided p-value for the interaction between treatment, AChEI use and time was 0.9223. Similar results were seen when investigating the effect of AChEI use on treatment effect for ADCS-ADL with p-values of 0.5137 and 0.6256 (two sided), respectively. At week 13, the LS Mean difference between 20 μg group and placebo in SIB Total for AChEI non-users was 2.00 and users was 2.09, and in ADCS-ADL for AChEI non-users was −0.67 and users was 1.99.

[3] = Week 13, FAS (mITT), Without Memantine
[4] = Week 15 (30 days post dosing), Completer, MMRM
[5] = Week 15 (30 days post dosing), FAS, MMRM
[6] = Week 15, Completer, With Memantine
[7] = Week 15, Completer, Without Memantine
[8] = Week 15, FAS (mITT), Without Memantine
[9] = Memantine Exposed Patients, FAS
[10] = Memantine Treatment-Naïve Patients, FAS

With `CCC/C=C/C=C/C(=O)O[C@H]1/C(=C/C(=O)OC)C[C@H]2C[C@H]([C@@H](C)O)OC(=O)C[C@H](O)C[C@@H]3C[C@H](OC(C)=O)C(C)(C)[C@](O)(C[C@@H]4C/C(=C/C(=O)OC)C[C@H](/C=C/C(C)(C)[C@]1(O)O2)O4)O3` [Bryostatin, bryostatin-1] the “SIB Total change from baseline, LS Mean” value [1, 3] was 3.83 points, the “SIB Total, Difference vs. Placebo” value [1, 3] was 5.11 and the “SIB Total change from baseline, LS Mean (SE)” value (“SIB Total change … (SE)” for short) ([1]; Week 13, FAS, MMRM) was 1.16 (1.150). For the same compound, the “SIB Total, Difference vs. Placebo” value ([1]; Week 13, FAS, MMRM) was 1.94, the “SIB Total change … (SE)” value [1, 4] was 1.96 (1.255) and the “SIB Total, Difference vs. Placebo” value [1, 4] was 4.09. The “SIB Total, Difference vs. Placebo” value ([1]; Week 15 (30 days post dosing), Completer, MMRM, listed as bryostatin) was 4.0 and 4.09, the “SIB Total change … (SE)” value [1, 5] was 1.77 (1.342) points and the “SIB Total, Difference vs. Placebo” value [1, 5] was 3.59. The “SIB Total change … (SE)” value ([1]; Week 15 (30 days post dosing), FAS, MMRM, listed as bryostatin) was 1.77 points, the “SIB Total change from baseline, LS Mean” value [1, 6] was −0.71 and the “SIB Total, Difference vs. Placebo” value [1, 6] was 1.45. The “SIB Total change from baseline, LS Mean” value [1, 7] was 6.24, the “SIB Total, Difference vs. Placebo” value [1, 7] was 6.36 and the “SIB Total change from baseline, LS Mean” value [1, 8] was 5.88 points. The “SIB Total, Difference vs. Placebo” value [1, 8] was 5.93, the “SIB Total change from baseline, LS Mean” value ([1]; Week 15, FAS, With Memantine) was −0.83 and the “SIB Total, Difference vs. Placebo” value ([1]; Week 15, FAS, With Memantine) was 0.79. The “13-week LS Mean change in SIB (so in the source)” value ([1]; Completers, 20 μg group 'without memantine' as printed) was 0.56, the “SIB Delta at Ave of Week 13 and 15, Mean” value [1, 9] was −0.727 and the “SIB Delta at Week 5, Mean” value [1, 9] was 0.077. The “SIB Delta at Week 9, Mean” value [1, 9] was −0.087, the “SIB Delta at Week 13, Mean” value [1, 9] was −0.545 and the “SIB Delta at Ave of Week 13 and 15, Mean” value [1, 10] was 5.406. The “SIB Delta at Week 5, Mean” value [1, 10] was 3.444, the “SIB Delta at Week 9, Mean” value [1, 10] was 3.467 and the “SIB Delta at Week 13, Mean” value [1, 10] was 4.500. For the same compound, the “Treatment, adjusted slope (ANCOVA, SIB at 13/15 weeks from baseline, 20 μg Bryostatin vs placebo)” value ([1]; Memantine Exposed, adjusted for Base SIB, MMSE-2) was −0.620 (p = 0.815), the “Treatment, adjusted slope (ANCOVA, SIB at 13/15 weeks from baseline, 20 μg Bryostatin vs placebo)” value ([1]; Memantine Exposed, adjusted for Baseline SIB) was −0.531 (p = 0.843) and the “Treatment, adjusted slope (ANCOVA, SIB at 13/15 weeks from baseline, 20 μg Bryostatin vs placebo)” value ([1]; Memantine Naïve, adjusted for Base SIB, MMSE-2) was 5.923 (p = 0.002). The “Treatment, adjusted slope (ANCOVA, SIB at 13/15 weeks from baseline, 20 μg Bryostatin vs placebo)” value ([1]; Memantine Naïve, adjusted for Baseline SIB) was 5.426 (p = 0.010), the “Combined treatment effect, mean improvement in SIB over placebo” value (“Combined treatment effect … over placebo” below) ([1]; Weeks 5, 9, 13, and 15, 30-Day Follow-up population) was 4.721 and the “Combined treatment effect … over placebo” value ([1]; Weeks 5, 9, and 13, Completer population) was 3.089. The “Combined treatment effect … over placebo” value ([1]; Weeks 5, 9, and 13, FAS population) was 2.146, the “SIB Total LS Mean difference between 20 μg group and placebo” value ([1]; AChEI non-users) was 2.00 and the “SIB Total LS Mean difference between 20 μg group and placebo” value ([1]; AChEI users) was 2.09. The “ADCS-ADL efficacy” value ([2]; 20 μg dose) was “significant”, the “ADCS-ADL difference from placebo” value ([2]; 20 μg dose, completers group) was 1.6 and the “ADCS-ADL difference from placebo” value ([2]; 20 μg dose, mITT group) was 1.4. For the same compound, the “ADCS-ADL, subgroups with and without memantine” value ([2]; memantine (Namenda) as background SOC therapy or not) was “not significantly different above placebo”, the “ADCS-ADL LS Mean difference between 20 μg group and placebo” value ([2]; AChEI non-users) was −0.67 and the “ADCS-ADL LS Mean difference between 20 μg group and placebo” value ([2]; AChEI users) was 1.99.
